For two compounds, EC50 results are on record in US8697641B2, “4-amino-4-oxobutanoyl peptide cyclic analogues, inhibitors of viral replication” (Achillion Pharmaceuticals, Inc., priority 2008, dated 2014).

This assay relates to Hepatitis C replicon. The experiment in a line: HCV replicon assay (NPT ELISA readout) in Huh-7 replicon-containing cells. The assay is classed as cell-based, Hepatitis C virus. The settings on record: Hepatitis C virus, 72 h; HCV replicon in Huh-7 cells, three days incubation. The procedure, abridged:
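Huh-7 cells carrying a neo-containing HCV subgenomic replicon (NS3-NS5B) were plated overnight, then exposed to compound (generally 6 concentrations, 10 to 0.03 μM) for three days at 37 °C. Replication was read as NPT level by captured ELISA; interferon alpha served as positive control.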
On the technique in general: Replicon systems follow genome replication, usually without infectious particles.

Where only a bound is given, the exact number is not on record here.

As to `COc1ccc2c(O[C@@H]3C[C@H]4C(=O)N[C@]5(C(=O)NS(=O)(=O)C6CC6)C[C@H]5/C=C\CCCCC[C@H](CC(=O)N5CCC(C(F)(F)F)CC5)C(=O)N4C3)nc(-c3ccccn3)cc2c1Cl` [Compound 132, (2R,6R,14aR,16aS,Z)-2-(5-chloro-6-methoxy-3-(pyridin-2-yl)isoquinolin-1-yloxy)-N-(cyclopropylsulfonyl)-5,16-dioxo-6-(2-oxo-2-(4-(trifluoromethyl)piperidin-1-yl)ethyl)-1,2,3,5,6,7,8,9,10,11, 13a,14,14a,15,16,16a-hexadecahydrocyclopropa [e]pyrrolo[1,2-a][1,4] diazacyclopentadecine-14a-carboxamide], the EC50 is less than 1 µM.

`COc1ccc2c(O[C@@H]3C[C@H]4C(=O)N[C@]5(C(=O)NS(=O)(=O)C6CC6)C[C@H]5/C=C\CCCCC[C@H](CC(=O)N5CCCC(F)(F)C5)C(=O)N4C3)cc(-c3csc(C(C)C)n3)nc2c1C` [Compound 133, (2R,6R,14aR,16aS,Z)-N-(cyclopropylsulfonyl)-6-(2-(3,3-difluoropiperidin-1-yl)-2-oxoethyl)-2-(2-(2-isopropylthiazol-4-yl)-7-methoxy-8-methylquinolin-4-yloxy)-5,16-dioxo-1,2,3,5,6,7,8,9,10,11, 13a,14,14a,15,16,16a-hexadecahydrocyclopropa [e]pyrrolo[1,2-a][1,4] diazacyclopentadecine-14a-carboxamide] came in with an EC50 of less than 1 µM.

The EC50 is the concentration at which the effect is half-maximal.
